Measured values reported in ChEMBL document CHEMBL2412992, “Fluorescent ligands for adenosine receptors” (Bioorg Med Chem Lett, 2013).

Target: Uncharacterized protein (Bos taurus, UniProt E1BKU0)
Assay: Displacement of [3H]CGS21680 from adenosine A2A receptor in bovine striatal membranes after 90 mins by liquid scintillation counting analysis
Assay type: cell membranes, Striatum, Membrane

Uncharacterized protein, sequence (E1BKU0 whole entry): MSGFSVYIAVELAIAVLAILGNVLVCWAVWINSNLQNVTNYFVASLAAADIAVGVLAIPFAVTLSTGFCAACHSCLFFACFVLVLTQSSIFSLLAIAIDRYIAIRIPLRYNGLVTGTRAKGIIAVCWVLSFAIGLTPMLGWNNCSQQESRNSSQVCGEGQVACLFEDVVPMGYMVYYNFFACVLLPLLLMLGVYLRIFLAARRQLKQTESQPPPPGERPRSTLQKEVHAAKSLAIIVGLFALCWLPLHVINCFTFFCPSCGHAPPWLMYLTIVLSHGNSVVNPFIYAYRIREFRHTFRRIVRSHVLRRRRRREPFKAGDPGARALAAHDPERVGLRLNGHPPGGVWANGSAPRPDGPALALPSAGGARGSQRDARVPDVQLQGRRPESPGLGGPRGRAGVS

- Ki: 11.2 nM
Structure (SMILES): CCNC(=O)[C@H]1O[C@@H](n2cnc3c(N)nc(NCCc4ccc(CCC(=O)NCCNC(=S)Nc5ccc(C6c7ccc(O)cc7OC7=CC(=O)C=CC76)c(C(=O)O)c5)cc4)nc32)[C@H](O)[C@@H]1O (stereo partly specified)
